Experiment [1] relates to CCL17 secretion in peripheral human whole blood. Put plainly: Human Whole Blood (HWB) CCL17 TR-FRET Assay (IL-13 stimulated CCL17 secretion). Format: cell-based. The gist of the method: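 Heparinized peripheral human whole blood was preincubated with compound (11-point, 3-fold series, duplicate) for 2 h at 37 °C, then stimulated with IL-13 at 10 ng/mL final for 48 h at 37 °C. Secreted CCL17 in the serum was quantified by TR-FRET sandwich immunoassay (665/615 nm ratio, 16 h RT); IC50 derived.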
Background: Time-resolved FRET reads energy transfer from a long-lived donor to a nearby acceptor.

In a further experiment the target is T1, STAT6 (Homo sapiens, UniProt P42226).
T1 construct: stably transfected HaCaT keratinocyte cell line, which expresses NanoLuc luciferase reporter gene under the transcriptional control of the STAT6 responsive promoter; endogenous in cells; host or cells: HaCaT keratinocyte reporter cell line (stably transfected with a NanoLuc reporter)
T1 sequence (P42226 1-847): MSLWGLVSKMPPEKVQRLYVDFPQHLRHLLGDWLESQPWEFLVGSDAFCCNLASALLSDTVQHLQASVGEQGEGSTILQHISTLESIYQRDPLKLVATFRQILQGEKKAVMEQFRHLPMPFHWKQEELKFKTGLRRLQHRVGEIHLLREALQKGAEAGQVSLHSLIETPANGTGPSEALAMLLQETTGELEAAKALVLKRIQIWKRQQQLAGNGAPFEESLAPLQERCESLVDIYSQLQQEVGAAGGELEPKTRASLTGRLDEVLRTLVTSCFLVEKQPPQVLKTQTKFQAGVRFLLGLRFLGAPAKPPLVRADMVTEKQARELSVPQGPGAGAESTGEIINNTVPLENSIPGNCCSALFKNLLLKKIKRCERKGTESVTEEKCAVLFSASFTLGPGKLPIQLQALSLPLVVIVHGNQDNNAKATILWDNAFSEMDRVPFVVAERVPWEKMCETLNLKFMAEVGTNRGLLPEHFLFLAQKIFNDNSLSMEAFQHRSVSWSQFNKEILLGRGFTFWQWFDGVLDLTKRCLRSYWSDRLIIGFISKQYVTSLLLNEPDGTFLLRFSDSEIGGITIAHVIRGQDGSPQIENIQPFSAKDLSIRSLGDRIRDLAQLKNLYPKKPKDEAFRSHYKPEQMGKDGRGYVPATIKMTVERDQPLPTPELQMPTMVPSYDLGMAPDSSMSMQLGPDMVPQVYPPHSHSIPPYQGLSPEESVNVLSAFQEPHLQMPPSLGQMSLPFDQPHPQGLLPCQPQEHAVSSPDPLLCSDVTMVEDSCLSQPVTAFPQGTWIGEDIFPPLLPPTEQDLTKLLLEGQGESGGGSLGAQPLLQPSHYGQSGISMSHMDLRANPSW
Put plainly: STAT6 Reporter Luciferase Assay (IL-13 stimulated HaCaT keratinocyte NanoLuc reporter cells). Format: cell-based. Particulars: read-out: Reporter EC50. Put shortly: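 HaCaT IL-13Ra2-promoter NanoLuc reporter; cpd 2 h 37 °C in DMEM/2% HI FBS; IL-13 0.12 nM final, 4 h; Nano-Glo luminescence.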

[2] abbreviates: Homo sapiens, 48 h, human whole blood, IL-13 stimulated.
Where [3] appears, read: IL-13 stimulated HaCaT STAT6 NanoLuc reporter cells.
Where [4] appears, read: human whole blood, IL-13 stimulated, 48 hours.
[5] abbreviates: Homo sapiens, 48 h, inhibition of CCL17 secretion in human whole blood, 10 ng/mL IL13, 48 hours.
Where [6] appears, read: STAT6 NanoLuc luciferase reporter, IL-13 stimulated HaCaT keratinocyte cells.
[7] abbreviates: inhibition of CCL17 secretion in human whole blood, 10 ng/mL IL13, 48 hours.
[8] abbreviates: Homo sapiens, 48 h, human whole blood, 10 ng/mL IL13, 48 hours.

As a reminder, the IC50 is the concentration needed to halve the response being measured. Broadly, the EC50 is the midpoint of the concentration-response curve.

Like-named read-outs stand apart in the source and are kept apart here.

In the case of `CC(C)n1nc(C(=O)NCc2ccc(NC(=O)N(C)C)nc2)c2c1[C@@H](C)CN(c1ccc(C(=O)N(C)C)cn1)C2` [Example 349, (S)-5-(5-(dimethylcarbamoyl)pyridin-2-yl)-N-((6-(3,3-dimethylureido)pyridin-3-yl)methyl)-1-isopropyl-7-methyl-4,5,6,7-tetrahydro-1H-pyrazolo[4,3-c]pyridine-3-carboxamide], half-maximal inhibition in experiment [1] (setting [2]) (IC50) was put at 11 nM. Moreover, the EC50 on STAT6 (setting [3]) came to 2 nM.

Turning to `Cc1c[nH]c(-c2ccc(CNC(=O)c3nn(C(C)C)c4c3CN(c3ccc(N5CCOC5=O)cn3)C[C@@H]4C)cc2)n1` [Example 518, (S)-1-isopropyl-7-methyl-N-(4-(4-methyl-1H-imidazol-2-yl)benzyl)-5-(5-(2-oxooxazolidin-3-yl)pyridin-2-yl)-4,5,6,7-tetrahydro-1H-pyrazolo[4,3-c]pyridine-3-carboxamide], the IC50 in experiment [1] (setting [2]) was determined as 71 nM. The EC50 on STAT6 (setting [3]) came to 2 nM.

Regarding `CC(C)n1nc(C(=O)NCc2ccc(NC(=O)N(C)C)cc2)c2c1C(C(F)(F)F)CN(c1ncc(C(=O)N(C)C)cn1)C2` (single isomer, unassigned) [Example 461, rel-(R or S)-5-(5-(dimethylcarbamoyl)pyrimidin-2-yl)-N-(4-(3,3-dimethylureido)benzyl)-1-isopropyl-7-(trifluoromethyl)-4,5,6,7-tetrahydro-1H-pyrazolo[4,3-c]pyridine-3-carboxamide], the IC50 in experiment [1] (setting [4]) was less than 1 nM. For the same compound, the EC50 on STAT6 (setting [3]) turned out to be 0.2 nM.

In the case of `CN(C)C(=O)Nc1ccc(CNC(=O)c2nn(C)c3c2CN(c2ccc(C(=O)N(C)C)cn2)CC3(F)F)cc1` [Example 70, 5-(5-(dimethylcarbamoyl)pyridin-2-yl)-N-(4-(3,3-dimethylureido)benzyl)-7,7-difluoro-1-methyl-4,5,6,7-tetrahydro-1H-pyrazolo[4,3-c]pyridine-3-carboxamide], in experiment [1] (setting [5]), the IC50 was 81 nM. Besides, the EC50 on STAT6 (setting [6]) turned out to be 8 nM.

Consider `CC1CN(c2ccc(C(=O)N(C)C)cn2)Cc2c(C(=O)NCc3ccc(NC(=O)N(C)C)cc3)nn(C)c21` (racemic) [Example 6, rac-(R)-5-(5-(Dimethylcarbamoyl)pyridin-2-yl)-N-(4-(3,3-dimethylureido)benzyl)-1,7-dimethyl-4,5,6,7-tetrahydro-1H-pyrazolo[4,3-c]pyridine-3-carboxamide], for which the IC50 in experiment [1] (setting [7]) came to 25 nM. Further, the EC50 at STAT6 (setting [6]) worked out at 4 nM.

Take `CC(C)n1nc(C(=O)NCc2ccc(NC(=O)N(C)C)cc2)c2c1[C@H](C)[C@@H](C)N(c1ncc(C(=O)N(C)C)cn1)C2` (single isomer, unassigned) [Example 448]: the IC50 in experiment [1] (setting [2]) is greater than 30000 nM. For the same compound, the EC50 at STAT6 (setting [3]) was found to be 13 nM.

With `CN(C)C(=O)Nc1ccc(CNC(=O)c2nn(CC3CC3)c3c2CN(c2ccc(C(=O)N(C)C)cn2)CC3)cc1` [Example 89, 1-(cyclopropylmethyl)-5-(5-(dimethylcarbamoyl)pyridin-2-yl)-N-(4-(3,3-dimethylureido)benzyl)-4,5,6,7-tetrahydro-1H-pyrazolo[4,3-c]pyridine-3-carboxamide], the IC50 in experiment [1] (setting [5]) worked out at 149 nM. For the same compound, the EC50 at STAT6 (setting [6]) was found to be 12 nM.

For the compound `Cc1nc(C(=O)NCc2ccc(NC(=O)N(C)C)cc2)c2n1CCN(c1ccc(C(=O)N(C)C)cn1)C2` [Example 5, 7-(5-(Dimethylcarbamoyl)pyridin-2-yl)-N-(4-(3,3-dimethylureido)benzyl)-3-methyl-5,6,7,8-tetrahydroimidazo[1,5-a]pyrazine-1-carboxamide], the IC50 in experiment [1] (setting [7]) turned out to be 927 nM. In addition, the EC50 at STAT6 (setting [6]) was determined as 124 nM.

For the compound `C[C@H]1CN(c2ccc(C(=O)N(C)C)cn2)Cc2c(C(=O)NCc3ccc(NC(=O)N(C)C)cc3)nn(CC(F)(F)F)c21` (single isomer, unassigned) [Example 307], the IC50 in experiment [1] (setting [2]) is 7 nM. For the same compound, the EC50 at STAT6 (setting [3]) was determined as 0.5 nM.

In experiment [1] (setting [5]), `CNC(=O)c1ccc(CNC(=O)c2nc(C3CC3)n3c2CN(c2ccc(C(=O)N(C)C)cn2)CC3)cc1` [Example 16, 3-cyclopropyl-7-(5-(dimethylcarbamoyl)pyridin-2-yl)-N-(4-(methylcarbamoyl)benzyl)-5,6,7,8-tetrahydroimidazo[1,5-a]pyrazine-1-carboxamide] displayed an IC50 of 791 nM. In addition, the EC50 on STAT6 (setting [6]) was 261 nM.

With `CC(C)n1nc(C(=O)NCc2ccc(-c3ncc[nH]3)cc2)c2c1[C@@H](C)CN(c1ccc(C(=O)N(C)C)cn1)C2` [Example 343, (S)-N-(4-(1H-imidazol-2-yl)benzyl)-5-(5-(dimethylcarbamoyl)pyridin-2-yl)-1-isopropyl-7-methyl-4,5,6,7-tetrahydro-1H-pyrazolo[4,3-c]pyridine-3-carboxamide], the IC50 in experiment [1] (setting [2]) worked out at 9 nM. In addition, the EC50 on STAT6 (setting [3]) turned out to be 1 nM.

Turning to `CCn1nc(C(=O)NCc2ccc(C(=O)NC)cc2)c2c1[C@@H](C)CN(c1ncc(C(=O)N(C)C)cn1)C2` [Example 306, (S)-5-(5-(dimethylcarbamoyl)pyrimidin-2-yl)-1-ethyl-7-methyl-N-(4-(methylcarbamoyl)benzyl)-4,5,6,7-tetrahydro-1H-pyrazolo[4,3-c]pyridine-3-carboxamide], the IC50 in experiment [1] (setting [2]) is 33 nM. Also, the EC50 on STAT6 (setting [3]) was found to be 7 nM.

As for `CC(C)n1nc(C(=O)NCc2ccc(NC(=O)N(C)C)cc2)c2c1[C@@H](C)CN(c1ccc(C(=O)N(C)CCN3CCOCC3)cc1)C2` [Example 636, (S)-N-(4-(3,3-dimethylureido)benzyl)-1-isopropyl-7-methyl-5-(4-(methyl(2-morpholinoethyl)carbamoyl)phenyl)-4,5,6,7-tetrahydro-1H-pyrazolo[4,3-c]pyridine-3-carboxamide], it took 33 nM to reach half-maximal inhibition in experiment [1] (setting [8]) (IC50). In addition, the EC50 at STAT6 (setting [3]) was found to be 3 nM.

The compound `CCn1nc(C(=O)NCc2ccc(NC(=O)N(C)C)cc2)c2c1[C@H]1CC[C@H]1N(c1ccc(C(=O)N(C)C)cn1)C2` (single isomer, unassigned) [Example 231] yielded an IC50 in experiment [1] (setting [4]) of 23 nM. At STAT6 (setting [3]), the EC50 stood at 2 nM.

Regarding `CC(C)n1nc(C(=O)NCc2ccc(NC(=O)N3CCN(C)CC3)cc2)c2c1[C@@H](C)CN(c1ccc(-n3nccn3)cn1)C2` [Example 631, (S)-5-(5-(2H-1,2,3-triazol-2-yl)pyridin-2-yl)-1-isopropyl-7-methyl-N-(4-(4-methylpiperazine-1-carboxamido)benzyl)-4,5,6,7-tetrahydro-1H-pyrazolo[4,3-c]pyridine-3-carboxamide], in experiment [1] (setting [8]), the IC50 turned out to be 24 nM. In addition, at STAT6 (setting [3]), the EC50 turned out to be 1 nM.

Compound `CCn1nc(C(=O)NCc2ccc(NC(=O)N(C)C)cc2)c2c1CCN(c1ccc(C(=O)N(C)C)cn1)[C@H]2C` [Example 512, (S)-5-(5-(dimethylcarbamoyl)pyridin-2-yl)-N-(4-(3,3-dimethylureido)benzyl)-1-ethyl-4-methyl-4,5,6,7-tetrahydro-1H-pyrazolo[4,3-c]pyridine-3-carboxamide] returned an IC50 in experiment [1] (setting [2]) of 2510 nM. The EC50 on STAT6 (setting [3]) stood at 240 nM.

`CCC1CN(c2ccc(C(=O)N(C)C)cn2)Cc2c(C(=O)NCc3ccc(NC(=O)N(C)C)cc3)nn(C)c21` (single isomer, unassigned) [Example 58, rel-(R or S)-5-(5-(Dimethylcarbamoyl)pyridin-2-yl)-N-(4-(3,3-dimethylureido)benzyl)-7-ethyl-1-methyl-4,5,6,7-tetrahydro-1H-pyrazolo[4,3-c]pyridine-3-carboxamide]: half-maximal inhibition in experiment [1] (setting [7]) (IC50) required 170 nM. Besides, the EC50 on STAT6 (setting [6]) worked out at 24 nM.

`COc1cc(NC(=O)N2CCNCC2)c(F)cc1CNC(=O)c1nn(C(C)C)c2c1CN(c1ccc(C(=O)N(C)C)cc1)C[C@@H]2C` [Example 588, (S)-5-(4-(dimethylcarbamoyl)phenyl)-N-(5-fluoro-2-methoxy-4-(piperazine-1-carboxamido)benzyl)-1-isopropyl-7-methyl-4,5,6,7-tetrahydro-1H-pyrazolo[4,3-c]pyridine-3-carboxamide] showed an IC50 in experiment [1] (setting [8]) of 875 nM. The EC50 at STAT6 (setting [3]) was 75 nM.

The record behind these values is US20250320213A1, “Nitrogen-Containing Heterocyclic Compounds” (Pfizer Inc., priority 2024, published 2025).
